Test results as given in publication doi:10.64898/2025.12.10.692519v1 (biorxiv, 2025).
Where two headings read alike, the source gives them in different places.

Experiments:
Test in all cases: cells
DU-145 = conditions: Homo sapiens, DU-145, 144 h
H-1299 = conditions: Homo sapiens, NCI-H1299, 144 h
HUT-78 = conditions: Homo sapiens, HuT78, 144 h
MDA-MB-468 = conditions: Homo sapiens, MDA-MB-468, 144 h, read-out: Lexibulin (CYT997)
A-549 = conditions: Homo sapiens, A549, 144 h
PANC-1 = conditions: Homo sapiens, PANC-1, 144 h
NALM-6 = conditions: Homo sapiens, NALM-6, 144 h
PLC-PRF5 = conditions: Homo sapiens, PLC-PRF-5, 144 h
HL-60 = conditions: Homo sapiens, HL-60, 144 h
HEP-2 = conditions: Homo sapiens, HEp-2, 144 h
786-O = conditions: Homo sapiens, 786-0, 144 h, read-out: Lexibulin (CYT997)
HRT-18 = conditions: Homo sapiens, HRT-18, 144 h
MOLM-14 = conditions: Homo sapiens, MOLM-14, 144 h, read-out: Lexibulin (CYT997)
ACHN = conditions: Homo sapiens, ACHN, 144 h, read-out: Lexibulin (CYT997)
REC-1 = conditions: Homo sapiens, Rec1, 144 h
Tov21G = conditions: Homo sapiens, TOV21G, 144 h, read-out: Lexibulin (CYT997)
U87-MG = conditions: Homo sapiens, U-87 MG, 144 h
THP-1 = conditions: Homo sapiens, THP-1, 144 h, read-out: Lexibulin (CYT997)
MESSA [1] = conditions: Homo sapiens, MES-SA, 144 h, read-out: Lexibulin (CYT997)
PC-3 = conditions: Homo sapiens, PC-3, 144 h, read-out: Lexibulin (CYT997)
LnCaP = conditions: Homo sapiens, LNCaP, 144 h, read-out: Lexibulin (CYT997)
CCRF-CEM = conditions: Homo sapiens, CCRF-CEM, 144 h
U-118 = conditions: 144 h
MCF-7 = conditions: Homo sapiens, MCF7, 144 h, read-out: Lexibulin (CYT997)
NOMO-1 = conditions: Homo sapiens, NOMO-1, 144 h, read-out: Lexibulin (CYT997)
HGC-27 = conditions: Homo sapiens, HGC-27, 144 h
Karpas-299 = conditions: Homo sapiens, KARPAS-299, 144 h
SK-N-MC = conditions: Homo sapiens, SK-N-MC, 144 h, read-out: Unesbulin (PTC-596)
A4573 = conditions: A4573, 144 h, read-out: Unesbulin (PTC-596)
SW-872 = conditions: Homo sapiens, SW872, 144 h, read-out: Unesbulin (PTC-596)
WEHI-164 = conditions: Mus musculus, WEHI-164, 144 h, read-out: Unesbulin (PTC-596)
U2OS = conditions: Homo sapiens, U2OS, 144 h, read-out: Unesbulin (PTC-596)
CHRF = test system: CHRF; design: species or system CMK; conditions: 72 h, read-out: Doxorubicin (IC50 nM)
CMK = test system: CMK; design: species or system CHRF; conditions: Homo sapiens, 72 h, read-out: Doxorubicin (IC50 nM)
MESSA [2] = test system: MESSA; design: species or system MES-SA/Mx2; conditions: Homo sapiens, MES-SA, read-out: MES-SA

Compound: CCC[C@H](Nc1nc(-c2ccc(NC(=O)NCC)c(OC)c2)ncc1C)c1cccnc1 [Lexibulin]
- IC50 (DU-145; read-out: Lexibulin (CYT997)): 0.032 µM
- IC50 (H-1299; read-out: Lexibulin (CYT997)): 0.007 µM
- IC50 (HUT-78; read-out: Lexibulin (CYT997)): 0.006 µM
- IC50 (MDA-MB-468): 0.685 µM
- IC50 (A-549; read-out: Lexibulin (CYT997)): 0.021 µM
- IC50 (PANC-1; read-out: Lexibulin (CYT997)): 0.013 µM
- IC50 (NALM-6; read-out: Lexibulin (CYT997)): 0.009 µM
- IC50 (PLC-PRF5; read-out: Lexibulin (CYT997)): 0.025 µM
- IC50 (HL-60; read-out: Lexibulin (CYT997)): 0.008 µM
- IC50 (HEP-2; read-out: Lexibulin (CYT997)): 0.016 µM
- IC50 (786-O): 0.165 µM
- IC50 (HRT-18; read-out: Lexibulin (CYT997)): 0.031 µM
- IC50 (MOLM-14): 0.045 µM
- IC50 (ACHN): 0.036 µM
- IC50 (REC-1; read-out: Lexibulin (CYT997)): 0.01 µM
- IC50 (Tov21G): 0.013 µM
- IC50 (U87-MG; read-out: Lexibulin (CYT997)): 0.02 µM
- IC50 (THP-1): 0.009 µM
- IC50 (MESSA [1]): 0.024 µM
- IC50 (PC-3): 0.142 µM
- IC50 (LnCaP): 0.052 µM
- IC50 (CCRF-CEM; read-out: Lexibulin (CYT997)): 0.008 µM
- IC50 (U-118; read-out: Lexibulin (CYT997)): 0.013 µM
- IC50 (MCF-7): 0.012 µM
- IC50 (NOMO-1): 0.28 µM
- IC50 (HGC-27; read-out: Lexibulin (CYT997)): 0.008 µM
- IC50 (Karpas-299; read-out: Lexibulin (CYT997)): 0.004 µM

Compound: Cc1nc2ccc(F)cc2n1-c1nc(N)c(F)c(Nc2ccc(C(F)(F)F)cc2)n1 [Unesbulin]
- IC50 (SK-N-MC): 0.014 µM
- IC50 (A4573): 0.021 µM
- IC50 (DU-145; read-out: Unesbulin (PTC-596)): 0.017 µM
- IC50 (H-1299; read-out: Unesbulin (PTC-596)): 0.005 µM
- IC50 (HUT-78; read-out: Unesbulin (PTC-596)): 0.02 µM
- IC50 (A-549; read-out: Unesbulin (PTC-596)): 0.013 µM
- IC50 (PANC-1; read-out: Unesbulin (PTC-596)): 0.021 µM
- IC50 (NALM-6; read-out: Unesbulin (PTC-596)): 0.03 µM
- IC50 (PLC-PRF5; read-out: Unesbulin (PTC-596)): 0.025 µM
- IC50 (HL-60; read-out: Unesbulin (PTC-596)): 0.048 µM
- IC50 (HEP-2; read-out: Unesbulin (PTC-596)): 0.01 µM
- IC50 (SW-872): 0.018 µM
- IC50 (HRT-18; read-out: Unesbulin (PTC-596)): 0.011 µM
- IC50 (REC-1; read-out: Unesbulin (PTC-596)): 0.017 µM
- IC50 (U87-MG; read-out: Unesbulin (PTC-596)): 0.011 µM
- IC50 (WEHI-164): 0.031 µM
- IC50 (CCRF-CEM; read-out: Unesbulin (PTC-596)): 0.027 µM
- IC50 (U-118; read-out: Unesbulin (PTC-596)): 0.033 µM
- IC50 (U2OS): 0.012 µM
- IC50 (HGC-27; read-out: Unesbulin (PTC-596)): 0.009 µM
- IC50 (Karpas-299; read-out: Unesbulin (PTC-596)): 0.034 µM

Compound: COc1cccc2c1C(=O)c1c(O)c3c(c(O)c1C2=O)C[C@@](O)(C(=O)CO)C[C@@H]3O[C@H]1C[C@H](N)[C@H](O)[C@H](C)O1 [doxorubicin]
- IC50 (CHRF): 681 nM
- IC50 (CMK): 844 nM
- IC50 (MESSA [2]): 0.071 ± 0.056 µM
